Assay results as given in US9145398B2, “Methods of treating CXCR4-expressing cancers” (University of Louisville Research Foundation, Inc., priority 2010, dated 2015).

What was measured:
hCXCR4-GFP [1] = assay: Chemotaxis assay, hCXCR4-GFP expressing 300.19 cells, CXCL12; format: cell-based, human; details: 50 μM test compound
Procedure: Cells were suspended in chemotaxis buffer (RPMI 1640, 1% fetal bovine serum, 1 mM HEPES) at a concentration of 1×10^7 cells per ml. Cell chemotaxis was determined by examining the migration of the 300.19 cells in response to administration of 50 μM test compound plus an optimized concentration of CXCL12 using a chemotaxis assay that was previously described in Basu et al. (Basu et al., Critical role for polar residues in coupling leukotriene B4 binding to signal transduction in BLT1, J. Biol. Chem. (2007) Vol. 282, pp. 10005-17). 100 μL of 300.19 cells from the above cell suspension were placed in the upper chamber of a Transwell support (Corning Costar, Cambridge, Mass.) and were separated by a 5 micron filter from a bottom chamber containing 50 μM test compound plus the optimized concentration of CXCL12 in a final bottom chamber volume of 600 μl. After 3 h of incubation at 37° C. in 5% CO2, the upper chamber was removed and cells in the lower chamber were counted in a Bürker chamber. Cell counts for all samples were normalized to a CXCL12 plus DMSO control and results are reported using this normalized measure, referred to herein as the chemotaxis index. In some instances, the IC50 concentration (i.e., the concentration at which the chemotaxis index is reduced to 50% of the chemotaxis index of the CXCL12 plus DMSO control) of the test compounds was determined. All assays were performed a minimum of four times; error bars represent the standard deviation of the mean.

300.19 cells = assay: Cytotoxicity assay, propidium iodide based flow cytometry; format: cell-based; details: for cytotoxicity, percentage of cells staining positive for PI: 50 μM test compound
Procedure: Cytotoxicity Assay Method: To determine the potential for test compound cytotoxicity to influence cell intracellular calcium mobilization and chemotaxis, cell cytotoxicity was assessed using propidium iodide (PI) based flow cytometry. Propidium iodine is impermeable to intact cell membranes and thus its lack of intercalation into DNA (which increases PI fluorescence) is a positive indicator of cell viability. Cytotoxicity values are presented as percentage of cells staining positive for PI. Lower values of fluorescence indicate less cytotoxicity. All assays were performed a minimum of four times; error bars represent the standard deviation of the mean.

BLT1 = BLT1 (Homo sapiens, UniProt Q15722); assay: Intracellular calcium mobilization assay, cells expressing BLT1, LTB4; format: cell-based; details: for normalized Δ fluorescence (BLT1, intracellular calcium mobilization): 50 μM test compound, LTB4; for IC50: LTB4-mediated
Sequence of BLT1 (Q15722 whole entry, species assumed): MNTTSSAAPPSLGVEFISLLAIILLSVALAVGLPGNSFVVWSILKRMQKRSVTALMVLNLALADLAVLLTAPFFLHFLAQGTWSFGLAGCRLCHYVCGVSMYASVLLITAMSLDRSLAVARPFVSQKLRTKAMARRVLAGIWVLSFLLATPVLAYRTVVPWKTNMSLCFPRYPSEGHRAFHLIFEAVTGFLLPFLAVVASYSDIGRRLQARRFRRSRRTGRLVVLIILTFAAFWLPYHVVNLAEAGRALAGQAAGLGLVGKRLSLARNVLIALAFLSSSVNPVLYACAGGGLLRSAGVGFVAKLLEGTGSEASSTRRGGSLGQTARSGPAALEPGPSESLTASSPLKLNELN
Procedure: (§1) Intracellular Calcium Mobilization Assay Method: The intracellular calcium mobilization assay used 300.19 cells which stably expressed hCXCR4-GFP, as described previously in Pello et al. (2008). Cells were loaded with INDO-I and then pretreated with the 50 μM of the test compound for 60 seconds prior to stimulation of intracellular calcium mobilization with an optimized concentration of CXCL12. […] The value Δ florescence is the difference between (a) the fluorescence ratio from cells before exposure to CXCL12 at its optimized concentration and (b) the fluorescence ratio from cells following stimulation with the optimized concentration of CXCL12. Decreases in Δ florescence correspond to decreases in intracellular calcium mobilization, and therefore, decreased signaling. As CXCL12 concentration was optimized for each test compound, results are presented as normalized Δ florescence which is Δ fluorescence divided by the fluorescence ratio of optimized CXCL12-only stimulation. In some instances, the IC50 concentration (concentration at which intracellular calcium mobilization is reduced to 50% of the Δ fluorescence of the CXCL12 plus DMSO control) of the test compounds was determined. All assays were performed a minimum of four times; error bars represent the standard deviation of the mean.
At 50 μM test compound concentrations in BLT1-expressing cells, I-44 (0.040) and I-46 (0.017) inhibited intracellular calcium mobilization.

hCXCR4-GFP [2] = target: hCXCR4-GFP (Homo sapiens, UniProt P61073); assay: Intracellular calcium mobilization assay, hCXCR4-GFP expressing 300.19 cells, CXCL12; format: cell-based; design: IC50 of intracellular calcium mobilization, CXCR4; other: CXCL12-mediated; other: 50 μM test compound; normalized Δ fluorescence (CXCR4, intracellular calcium mobilization); other: 50 μM test compound, 60 seconds pretreatm; details: for normalized Δ fluorescence (CXCR4, intracellular calcium mobilization): 50 μM test compound, 60 seconds pretreatment, optimized CXCL12 (AMD3100 concentration not given); for IC50: CXCL12-mediated, read-out: IC50 of intracellular calcium mobilization, CXCR4
Sequence of hCXCR4-GFP (Homo sapiens, UniProt P61073) (P61073 whole entry): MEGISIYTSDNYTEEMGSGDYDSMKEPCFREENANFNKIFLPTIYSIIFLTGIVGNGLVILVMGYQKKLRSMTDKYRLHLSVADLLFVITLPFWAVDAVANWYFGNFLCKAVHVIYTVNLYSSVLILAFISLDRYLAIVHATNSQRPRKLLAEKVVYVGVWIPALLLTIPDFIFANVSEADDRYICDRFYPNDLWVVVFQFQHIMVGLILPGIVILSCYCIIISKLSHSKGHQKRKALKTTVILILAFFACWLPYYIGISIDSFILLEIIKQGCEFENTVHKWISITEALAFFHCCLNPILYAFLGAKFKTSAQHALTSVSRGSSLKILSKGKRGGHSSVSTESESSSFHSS
Procedure: as §1

hCXCR4-GFP [3] = assay: as above; format: cell-based, human; details: for difference between CXCR4- and BLT1-mediated intracellular calcium mobilization: 50 μM test compound
Procedure: as §1

| Compound | difference between CXCR4- and BLT1-mediated chemotaxis (hCXCR4-GFP [1]) | cytotoxicity, percentage of cells staining positive for PI (300.19 cells) | IC50 (BLT1) | IC50 (hCXCR4-GFP [2]) | also measured |
| --- | --- | --- | --- | --- | --- |
| N=c1n(CCN2CCCCC2)c2ccccc2n1CC(O)COc1ccc(Cl)cc1 (stereo not drawn) [Compound I-5, 1-(4-chlorophenoxy)-3-[2-imino-3-[2-(1-piperidyl)ethyl]benzoimidazol-1-yl]-propan-2-ol] | small differences |  |  |  |  |
| COc1ccc(-c2cc(-c3ccccc3)cc3sc(/C(N)=N\C#N)c(N)c23)cc1 [Compound I-44, (E)-3-amino-N′-cyano-4-(4-methoxyphenyl)-6-phenylbenzo[b]thiophene-2-carboxamidine] |  | 99.8% |  |  | normalized Δ fluorescence (BLT1, intracellular calcium mobilization) (BLT1): 0.040; normalized Δ fluorescence (CXCR4, intracellular calcium mobilization) (hCXCR4-GFP [2]): 0.29 |
| CCOc1ccc(NCc2nc3ccccc3n2CCOc2ccccc2)cc1 [Compound I-8, 4-ethoxy-N-((1-(2-phenoxyethyl)-1H-benzo[d]imidazol-2-yl)methyl)benzenamine] | small differences |  |  |  |  |
| COc1ccccc1C(=O)OCCNc1nc2cc(C)cc(C)c2cc1C#N [Compound I-12, 2-[(3-cyano-5,7-dimethyl-2-quinolyl)amino]ethyl 2-methoxybenzoate] |  |  | 2.5 µM | 5 µM | difference between CXCR4- and BLT1-mediated intracellular calcium mobilization (hCXCR4-GFP [3]): no significant difference |
| O=C(/C=C/c1ccccc1)NC(=S)Nc1cccc(-c2nc3ncccc3o2)c1 [Compound I-40, 1-(3-(oxazolo[4,5-b]pyridin-2-yl)phenyl)-3-((E)-3-phenylacryloyl)thiourea] |  | 88.3% |  |  |  |
| CCOC(=O)c1c(C)[nH]c(C(=O)COC(=O)c2c(-c3ccccc3)noc2C)c1C [Compound I-32, [2-(4-ethoxycarbonyl-3,5-dimethyl-1H-pyrrol-2-yl)-2-oxo-ethyl]5-methyl-3-phenyl-isoxazole-4-carboxylate] | small differences |  |  |  |  |
| COC(=O)c1ccc(NC(=O)c2ccc3nc(-c4ccccn4)c(-c4ccccn4)nc3c2)cc1 [Compound I-39, methyl 4-(2,3-di(pyridin-2-yl)quinoxaline-6-carboxamido)benzoate] |  |  |  |  | normalized Δ fluorescence (CXCR4, intracellular calcium mobilization) (hCXCR4-GFP [2]): 0.31 |
| CCOc1ccc(NCC(O)Cn2c3ccccc3n3c(=O)cc(C)c(C#N)c23)cc1 (stereo not drawn) [Compound I-15, 5-[3-[(4-ethoxyphenyl)amino]-2-hydroxypropyl]-1,5-dihydro-3-methyl-1-oxo-pyrido[1,2-a]benzimidazole-4-carbonitrile] |  |  | 30 µM | 50 µM | normalized Δ fluorescence (BLT1, intracellular calcium mobilization) (BLT1): 0.16; normalized Δ fluorescence (CXCR4, intracellular calcium mobilization) (hCXCR4-GFP [2]): 0.45; fold greater inhibition of CXCR4-mediated than BLT1-mediated intracellular calcium mobilization (hCXCR4-GFP [3]; from normalized Δ fluorescence): ~3 fold |
| CCC(=O)NCCNc1nc2cc(C)cc(C)c2cc1C#N [Compound I-13, N-[2-[(3-cyano-5,7-dimethyl-2-quinolyl)amino]ethyl]propanamide] |  |  | 2.5 µM | 5 µM | difference between CXCR4- and BLT1-mediated intracellular calcium mobilization (hCXCR4-GFP [3]): no significant difference |
| C=C(C)C1CC=C(CN(CCCN(C)C)CCCN(C)C)CC1 (stereo not drawn) [Compound I-6, N-(3-dimethylaminopropyl)-N-[(4-isopropenyl-1-cyclohexenyl)methyl]-N′,N′-dimethyl-propane-1,3-diamine] | small differences |  |  |  |  |
| COc1ccc(NCc2nc3ccccc3n2CCOc2ccccc2C)cc1 [Compound I-7, N-((1-(2-(o-tolyloxy)ethyl)-1H-benzo[d]imidazol-2-yl)methyl)-4-methoxybenzenamine] |  | 53.4% |  |  | cytotoxicity at 10 μM (300.19 cells): retained cytotoxicity |
| CCOc1ccc(NCC(O)Cn2c3ccccc3c3ccccc32)cc1 (stereo not drawn) [Compound I-16, 1-carbazol-9-yl-3-(4-ethoxyphenyl)amino-propan-2-ol] | small differences | 67.9% | 30 µM | 35 µM | cytotoxicity at 10 μM (300.19 cells): retained cytotoxicity |
